Source: a melting point compilation (Tetko et al.; mined from patent text by program, amines drawn as free bases though some values may be those of a salt)

Compound | melting point
COc1ccc2[nH]c3cc(C(=O)OCc4ccccc4)c4c(c3c2c1)C(=O)NC4=O | 245 °C
COC(=O)c1cc([N+](=O)[O-])c[nH]1 | 196 to 197 °C
O=C(NCC1(c2ccccc2)CCCCC1)Nc1cccc(C(F)(F)F)c1 | 147 to 151 °C
COc1ccc(CC2SC(=O)NC2=O)c2c1N(Cc1ccc(NC(=O)c3ccc4ccccc4c3)cc1)C(=O)CC2 (stereo not given) | 202 to 208 °C
CCCc1c(COc2ccc(C(=O)CCCCCCc3nnn[nH]3)cc2)ccc(C(C)=O)c1O | 134 to 137 °C
CCN1C(=O)c2cscc2Nc2ccccc21 | 175 to 177 °C
CCOC(=O)c1c(C(F)(F)F)[nH]cc(-c2cc(OC(C)C)c(Cl)cc2F)c1=O | 118 to 119 °C
CC(C)(C)c1cc(-c2nn(CCCO)c3ncccc23)cc(C(C)(C)C)c1O | 143 to 144 °C
CC(OCCc1ccc(-c2ccc(Cl)cc2)cc1)C(=O)O (stereo not given) | 90 to 92 °C
Brc1ccc(-c2ccnc(-c3ccccc3)n2)cc1 | 107 °C
CCCOC1C=CC(=O)N1S(=O)(=O)c1ccccc1 (stereo not given) | 56 to 58 °C
Cc1cc(C(=O)N(O)C2CCCCC2)c(C)o1 | 135 to 137 °C
CCOC(=O)Nc1ccccc1N1CC2(CCN(C)CC2)c2ccccc21 | 99.5 to 101 °C
CC1CC=C(N(C)c2ccccc2)c2ncc(C(=O)O)c(=O)n21 (stereo not given) | 170 to 171 °C
COC(=O)CCc1ccccc1Cc1ccccc1C(=O)O | 123 to 126 °C
N#Cc1cccc(C2=Nc3cc(CO)c(C#Cc4ccccc4)cc3NC(=O)C2)c1 | > 255 °C
CC(C)c1nn(-c2ncc(C(F)(F)F)cn2)cc1CCCO | 98 to 99 °C
COc1ccc(C=C2N=C(c3ccccc3I)OC2=O)cc1OC | 200 to 202 °C
OC1CSC(Oc2ccc(-c3ccoc3)cc2F)C(O)C1O (stereo not given) | 155 °C
CC(=O)Oc1c(C(C)C)cc(NC(=O)Nc2cnc3c(C)cc(C)cc3c2-c2ccccc2Cl)cc1C(C)C | 248 to 249 °C
CN1C(=O)[C@H](NC(=O)c2ccccc2)N=C(c2ccccc2)c2ccccc21 | 224 to 225 °C
C[Si](C)(C)c1cc(C(F)=C(F)C(F)(F)F)c(S(N)(=O)=O)s1 | 129 to 140 °C
CNC(=O)N(O)Cc1cccc(Nc2ccccc2C(=O)OC)c1Cl | 143 to 145 °C
CC(C)(C)OC(=O)NCCNC(=O)c1ccc(Cl)cc1 | 141 to 143 °C
CCCCCCCCNC(=O)N(C)C[C@H](O)[C@@H](O)[C@H](O)[C@H](O)CO | 111 °C
CN(C)c1ccc([N+](=O)[O-])cc1C#N | 109 to 110 °C

Compound | melting point
O=C(O)c1csnc1-c1ccc(Cl)cc1 | 182 °C
COC(=O)C1CCC2C3CCC4CC(O)C(O)CC4(C)C3C(NC3CCCCC3)CC12C (stereo not given) | 199 to 202 °C
CCCCCCC(C)N(Cc1ccc(CC(C)(C)C)cc1)C(Nc1cc(C(C)(C)C)c(O)c(C(C)(C)C)c1)=C1C(=O)COC1=O (stereo not given) | 158 to 160 °C
CCCCCCCCCCCCS(=O)(=O)CCOc1ccc(C/C=C(\OC(=O)CC)C(F)(F)F)cc1 | 60 to 63 °C
CC(C)C[N+]([O-])=Cc1ccccc1 | 73 to 75 °C
Cc1cccc2c(-c3ccccc3)onc12 | 73 to 75 °C
CC(=O)c1ccc2c(c1)C(Cl)Cc1ccc(F)cc1S2 (stereo not given) | 112 to 114 °C
O=c1cc(CO)oc(CO)c1O | 160 to 161 °C
COc1cc(N)c(Cl)cc1C(=O)NCC1CCN(CCCCCNC(=O)c2ccccc2)CC1 | 138 to 140 °C
CC(=O)Nc1ccc(N=O)cc1 | 179 to 180 °C
CC(=O)NC(=CC(=O)[C@H](Cc1ccccc1)N(Cc1ccccc1)Cc1ccccc1)Cc1ccccc1 | 95 to 96 °C
CCN(CC(C)(C)C)c1nc2c(cc1CN(Cc1cc(C(F)(F)F)cc(C(F)(F)F)c1)c1nnn(C)n1)c(C)nn2C | 72 to 73 °C
O=CC(=Cc1cccc(Cl)c1)C(C=O)=Cc1cccc(Cl)c1 | 107 to 108 °C
NC(=O)c1ncn2c1[C@@H]1CCN1C(=O)c1c-2cccc1C(F)(F)F | > 300 °C
O=C1C(=Cc2c(Cl)cccc2Cl)CCc2ccccc21 | 73.8 to 75.6 °C
Cc1ccc(-c2ccc3c(c2)OCO3)cc1 | 57 to 60 °C
Cc1nc(-c2ccccc2)nc(N2CCCC2C(=O)O)c1C (stereo not given) | 90 to 92 °C
C=CCNc1c(C(=O)OCC)cnc2cn(C(C)(C)OC)nc12 | 102 to 103 °C
CC(O)c1cc(C(C)O)cc(S(N)(=O)=O)c1 (stereo not given) | 175 to 177 °C
COc1ccc(N2CCN(Cc3nn(C(C)=O)c4cc(F)ccc34)CC2)cc1 | 94 to 95 °C
COc1nc(Br)nc(OC)n1 | 118 to 120 °C
COc1ccc(C(=O)c2ccc3cc(OC)ccc3c2-c2ccccc2)cc1 | 122 to 124 °C
COc1ccc(NC(C)=O)c(OC)c1-c1ccc(C[C@H](NC(=O)c2c(Cl)cccc2Cl)C(=O)O)cc1 | 244 to 245 °C
CCc1nc(-c2ccc(/C=C/C3(O)CN4CCC3CC4)cc2)no1 (stereo not given) | 158 to 160 °C
Cn1cc(CCl)c(-c2ccc(Cl)cc2C(=O)c2ccccc2F)n1 | 153 to 155 °C
COc1cc2c3c(c1)c(N)c(C(=O)N1CCc4ccccc41)c(=O)n3CCO2 | 130 to 140 °C

Other lines, results leading:

melting point | Compound
138 °C | OCc1c(-c2ccccc2)c(-c2ccccc2)nn1Cc1ccccc1
205 to 207 °C | CC(=O)Nc1ccc(CSc2ccc(CC(=O)O)cc2)c(C(=O)O)c1
128 to 129 °C | CCC(C)(C)C(=O)c1ccc(C(=O)O)cc1
248 to 250 °C | O=C1NN(C(=O)c2cc3ccccc3[nH]2)C(c2ccccc2)C1c1ccccc1 (stereo not given)
156 to 157 °C | COCCN(CCOC)c1ccc(NC(=O)c2ccc(C)c(Nc3nccc(-c4cccnc4)n3)c2)cc1C(F)(F)F
125 to 129 °C | O[C@H]1CN(Cc2ccccc2)CC[C@@H]1c1ccc(Br)cc1 (racemic)
142 °C | COc1cc(CC(=O)O)n(C)c1C(=O)c1ccc(Cl)cc1
76 to 78 °C | CCCCCS(=O)(=O)NC(=O)C(Cc1ccc(OCCOC)cc1Oc1ncc(C(F)(F)F)cc1Cl)OC (stereo not given)
165 to 166 °C | Cc1c(/C=N/OCc2ccc(C(=O)O)c(Br)c2)c2ccccc2n1C
93 to 94 °C | OCc1conc1-c1ccc(F)c(Br)c1
56 to 57 °C | Cc1nn(C)c(Oc2ccccn2)c1C=O
158 to 162 °C | Cc1nc2c(OCc3cc(N(C)S(C)(=O)=O)ccc3Cl)cccn2c1Br
123 to 125 °C | COC(=O)CCC(=O)N(O)c1cccc(OCc2nc3ccccc3s2)c1
160 to 161 °C | Cc1cnc(CCl)n2c1c(CCCl)c1ccccc12
267 to 269 °C | O=C1Nc2cc(Cl)ccc2Sc2cscc21
255 to 256 °C | O=C1NCCc2c(-c3ccsc3)[nH]c3cccc1c23
113 to 128 °C | CCC1Oc2ccc(CN3CCN(c4ccncc4)CC3)cc2NC1=O (stereo not given)
142 to 145 °C | CS(=O)(=O)c1ccc(-c2cnn(-c3cccc(Cl)c3)c(=O)c2CCc2ccccc2)cc1
169 to 170 °C | CCCCc1c(Cl)nc(N)nc1Cl
94 to 96 °C | COc1cc(C(=O)C#Cc2ccccc2)cc(OC)c1OC
179 °C | Cc1ccc(-c2cc(NCCNc3cc(-c4ccc(C)cc4)[nH]n3)n[nH]2)cc1
80 to 81 °C | COc1cc(C=O)ccc1OCc1nc(N2CCCCC2)sc1C
130 to 132 °C | COc1cc(C(=O)N2CCN(C(=O)/C=C(\c3ccc(F)cc3)c3cc(OC)c(OC)c(OC)c3)CC2)cc(OC)c1OC
165 to 166 °C | O=C(O)CCc1cn(Cc2cccc(C(=O)NCc3ccc(C(F)(F)F)cc3)c2)nc1-c1ccccc1

melting point | Compound
114 to 118 °C | CC1Cc2ccc(N3C(=O)C4=C(CCCC4)C3=O)cc2O1 (stereo not given)
132 to 133 °C | O=C1CC(c2ccccc2)Nc2ccccc2N1Cc1ccccc1 (stereo not given)
> 285 °C | N#Cc1cc(NC(=O)c2cc3ccccc3s2)ccc1N1CCN(C2CCOCC2)CC1
247 to 250 °C | Nc1cc2c(Nc3ccc(OCc4ccccn4)c(Cl)c3)ncnc2cn1
171 to 173 °C | CCOc1ccccc1C(=O)NCCN1CCC(O)(c2ccc(Cl)cc2)CC1
73 to 74 °C | COc1ccc2c(c1)CCc1c(Cl)cccc1S2
116 °C | CC(CO)(CO)NS(=O)(=O)c1cccc([N+](=O)[O-])c1
209 to 210 °C | COc1ccc(OC)c(C=CC(=O)Nc2cnc3c(C)cc(C)cc3c2-c2ccccc2Cl)c1
188 to 190 °C | Cc1ccc(S(=O)(=O)Cc2ccc([N+](=O)[O-])cc2)cc1
> 300 °C | O=C(O)c1ccc(-n2cnnc2)cc1
88 to 89 °C | Cc1oc(-c2ccccc2)nc1C(=O)CBr
221 °C | CC(C)NC(=O)NNC=NC(=O)c1nc(F)c(N)nc1N
141 to 142 °C | CC1(C)OCC[C@@H]2[C@H](C(O)CBr)C(=O)N21 (stereo not given in full)
108 to 110 °C | Cc1[nH]c2ccccc2c1CCCN1CCC(c2noc3cc(Cl)ccc23)CC1
157 to 160 °C | O=C(O)c1ccc(OCCCCCCc2cccc(O)c2O)c(Cl)c1
128 to 135 °C | COc1cc(C(=O)NS(=O)(=O)c2ccccc2Cl)ccc1Cc1cn(C)c2ccc(CC3CCN(C)C3=O)cc12 (stereo not given)
142 to 147 °C | Cc1cn(CC(=O)N(CCNC(=O)OC(C)(C)C)CC(=O)O)c(=O)[nH]c1=O
175 °C | COc1ccc(C[C@@H]2COc3ccc(OCc4ccc5ccccc5n4)cc3[C@H]2O)cc1OC (relative stereo)
193 °C | CCN(CC)c1ccc(-c2cc(-c3ccc(C(=O)O)cc3)ccc2OCC(C)O)cc1C(C)(C)C (stereo not given)
69 to 71 °C | CC(C)[C@H](NC(=O)N(C)Cc1ccccn1)C(=O)N[C@@H](Cc1ccccc1)[C@@H](O)C[C@H](Cc1ccccc1)NC(=O)OCc1cccnc1
80 to 84 °C | CC(=O)NCc1cc(C(C)(C)C)c(O)c(C(C)(C)C)c1
178 °C | C=CCOc1cc(C)c2c(C)cc(=O)oc2c1
61 to 63 °C | CS(=O)(=O)c1ccc(C(CC2CCCC2)C(=O)Nc2nccs2)cc1 (stereo not given)
36 to 46 °C | COc1ccc2nc(S(=O)Cc3nccc(OCC(F)(F)F)c3OC)[nH]c2c1 (stereo not given)
